Test results from US10597388B2, “Pyridazinone herbicides” (FMC CORPORATION, priority 2014, dated 2020).

What was measured:
Test in all cases: Test C greenhouse herbicide test, pre- and postemergence
Type in all cases: in vivo
[1] = system: barnyardgrass (Echinochloa crus-galli)
Method in brief: (§1)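 Preemergence: seeds sown in a loam soil–sand blend and sprayed with test chemicals in a non-phytotoxic solvent mixture containing surfactant. Postemergence: plants grown in peat-based medium and treated at 2 to 18 cm (1- to 4-leaf stage). After 13 to 15 d in a greenhouse, injury was visually rated 0–100 against controls.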

[2] = system: blackgrass (Alopecurus myosuroides)
Method in brief: as §1

corn (Zea mays) = system: corn (Zea mays)
Method in brief: as §1

[3] = system: crabgrass, large (large crabgrass, Digitaria sanguinalis)
Method in brief: as §1

[4] = system: foxtail, giant (giant foxtail, Setaria faberii)
Method in brief: as §1

[5] = system: galium (catchweed bedstraw, Galium aparine)
Method in brief: as §1

[6] = system: johnsongrass (Sorghum halepense)
Method in brief: as §1

[7] = system: nutsedge, yellow (yellow nutsedge, Cyperus esculentus)
Method in brief: as §1

[8] = system: ryegrass, Italian (Italian ryegrass, Lolium multiflorum)
Method in brief: as §1

soybean (Glycine max) = system: soybean (Glycine max)
Method in brief: as §1

[9] = system: velvetleaf (Abutilon theophrasti)
Method in brief: as §1

[10] = system: wheat (winter wheat, Triticum aestivum)
Method in brief: as §1

[11] = Postemergence, 31 g ai/ha, 0 to 100 scale (0 no effect, 100 complete control)
[12] = Postemergence, 125 g ai/ha, scale 0 to 100, 0 is no effect, 100 is complete control
[13] = Postemergence, 250 g ai/ha, scale 0 to 100, 0 no effect, 100 complete control, 13 to 15 d
[14] = Preemergence, 31 g ai/ha, scale 0 to 100, 0 is no effect, 100 is complete control
[15] = Preemergence, 62 g ai/ha, scale 0 to 100, 0 is no effect, 100 is complete control
[16] = Preemergence, 125 g ai/ha, scale 0 to 100, 0 is no effect, 100 is complete control
[17] = Preemergence, 250 g ai/ha, scale 0 to 100, 0 no effect, 100 complete control
[18] = postemergence, 62 g ai/ha, scale 0 to 100, 0 no effect, 100 complete control

CCc1ccc2ccccc2c1-c1c(O)c(C)nn(C)c1=O [Compound 32]
Barnyardgrass plant response rating [1, 11]: 10
Plant response rating, Barnyardgrass [1, 12]: 65
Plant response rating, Barnyardgrass [1, 13]: 90
Plant response rating, Barnyardgrass [1, 14]: 20
Plant response rating, Barnyardgrass [1, 15]: 65
Plant response rating, Barnyardgrass [1, 16]: 85
Barnyardgrass plant response rating [1, 17]: 100
Barnyardgrass plant response rating [1, 18]: 30
Blackgrass plant response rating [2, 11]: 30
Plant response rating, Blackgrass [2, 12]: 80
Plant response rating, Blackgrass [2, 13]: 80
Plant response rating, Blackgrass [2, 14]: 70
Plant response rating, Blackgrass [2, 15]: 90
Plant response rating, Blackgrass [2, 16]: 90
Blackgrass plant response rating [2, 17]: 90
Blackgrass plant response rating [2, 18]: 60
Corn plant response rating (corn (Zea mays); [11]): 0
Plant response rating, Corn (corn (Zea mays); [12]): 30
Plant response rating, Corn (corn (Zea mays); [13]): 40
Plant response rating, Corn (corn (Zea mays); [14]): 0
Plant response rating, Corn (corn (Zea mays); [15]): 0
Plant response rating, Corn (corn (Zea mays); [16]): 0
Corn plant response rating (corn (Zea mays); [17]): 35
Corn plant response rating (corn (Zea mays); [18]): 20
Crabgrass, Large plant response rating [3, 11]: 10
Plant response rating, Crabgrass, Large [3, 12]: 75
Plant response rating, Crabgrass, Large [3, 13]: 70
Plant response rating, Crabgrass, Large [3, 14]: 0
Plant response rating, Crabgrass, Large [3, 15]: 35
Plant response rating, Crabgrass, Large [3, 16]: 70
Crabgrass, Large plant response rating [3, 17]: 100
Crabgrass, Large plant response rating [3, 18]: 30
Foxtail, Giant plant response rating [4, 11]: 15
Plant response rating, Foxtail, Giant [4, 12]: 80
Plant response rating, Foxtail, Giant [4, 13]: 90
Plant response rating, Foxtail, Giant [4, 14]: 55
Plant response rating, Foxtail, Giant [4, 15]: 80
Plant response rating, Foxtail, Giant [4, 16]: 85
Foxtail, Giant plant response rating [4, 17]: 85
Foxtail, Giant plant response rating [4, 18]: 50
Galium plant response rating [5, 11]: 90
Plant response rating, Galium [5, 12]: 100
Plant response rating, Galium [5, 13]: 100
Plant response rating, Galium [5, 14]: 90
Plant response rating, Galium [5, 15]: 95
Plant response rating, Galium [5, 16]: 100
Galium plant response rating [5, 17]: 98
Galium plant response rating [5, 18]: 100
Johnsongrass plant response rating [6, 11]: 5
Plant response rating, Johnsongrass [6, 12]: 15
Plant response rating, Johnsongrass [6, 13]: 35
Plant response rating, Johnsongrass [6, 14]: 0
Plant response rating, Johnsongrass [6, 15]: 0
Plant response rating, Johnsongrass [6, 16]: 10
Johnsongrass plant response rating [6, 17]: 45
Johnsongrass plant response rating [6, 18]: 25
Nutsedge, Yellow plant response rating [7, 11]: 55
Plant response rating, Nutsedge, Yellow [7, 12]: 80
Plant response rating, Nutsedge, Yellow [7, 13]: 85
Plant response rating, Nutsedge, Yellow [7, 14]: 25
Plant response rating, Nutsedge, Yellow [7, 15]: 45
Plant response rating, Nutsedge, Yellow [7, 16]: 45
Nutsedge, Yellow plant response rating [7, 17]: 60
Nutsedge, Yellow plant response rating [7, 18]: 80
Ryegrass, Italian plant response rating [8, 11]: 85
Plant response rating, Ryegrass, Italian [8, 12]: 90
Plant response rating, Ryegrass, Italian [8, 13]: 95
Plant response rating, Ryegrass, Italian [8, 14]: 85
Plant response rating, Ryegrass, Italian [8, 15]: 90
Plant response rating, Ryegrass, Italian [8, 16]: 95
Ryegrass, Italian plant response rating [8, 17]: 95
Ryegrass, Italian plant response rating [8, 18]: 90
Soybean plant response rating (soybean (Glycine max); [11]): 15
Plant response rating, Soybean (soybean (Glycine max); [12]): 30
Plant response rating, Soybean (soybean (Glycine max); [13]): 35
Plant response rating, Soybean (soybean (Glycine max); [15]): 10
Plant response rating, Soybean (soybean (Glycine max); [16]): 40
Soybean plant response rating (soybean (Glycine max); [17]): 55
Soybean plant response rating (soybean (Glycine max); [18]): 25
Velvetleaf plant response rating [9, 11]: 10
Plant response rating, Velvetleaf [9, 12]: 85
Plant response rating, Velvetleaf [9, 13]: 85
Plant response rating, Velvetleaf [9, 15]: 85
Plant response rating, Velvetleaf [9, 16]: 85
Velvetleaf plant response rating [9, 17]: 90
Velvetleaf plant response rating [9, 18]: 70
Wheat plant response rating [10, 11]: 5
Plant response rating, Wheat [10, 12]: 25
Plant response rating, Wheat [10, 13]: 40
Plant response rating, Wheat [10, 15]: 45
Plant response rating, Wheat [10, 16]: 50
Wheat plant response rating [10, 17]: 70
Wheat plant response rating [10, 18]: 15
